The values that follow come from patent publication US7709532B2, “Methods for improving bioavailability of a renin inhibitor” (Novartis AG, priority 2004, dated 2010).

One data set can be described thus: in vitro. The following applies: human, Caco-2. From the text: (§1) Alternatively, the in vitro transporter affinity of a drug substance can be determined and approximated by a Caco-2 cell assay as described, e.g., in Camenisch et al., Pharm. Act. Helv. 71, 309-327 (1996), or as illustrated herein in the Examples. The identification of the transporter protein and the efficacy of a compound to inhibit the efflux system involved may as well be determined in the Caco-2 cell assay.
(§2) Caco-2 cell monolayers grown on PET filters for 21-25 days are used for the transport experiments. The flux of compounds across Caco-2 cell monolayers grown on PET filters as well as across PET filters alone without Caco-2 cells is determined as follows: Prior to the transport experiment, the culture medium in the acceptor compartment (0.2 mL for apical and 1.0 mL for basolateral sides) is replaced with acceptor solution (HBSS, when relevant containing the inhibitor of interest) preincubated at 37° C. To start the experiment, the medium in the donor compartment (0.35 mL for apical and 1.15 mL for basolateral sides) is replaced with donor solution (compound in HBSS, when relevant containing inhibitor of interest) pre-incubated at 37° C. Aliquots of 150 μL are removed from the donor and the acceptor side after about 1 and 120 min. Transport experiments in both apical-to-basolateral and basolateral-to-apical directions are performed in triplicate at 37° C. in an incubator without shaking.
(§3) The suitability of Caco-2 cells for transport experiments is examined by measuring the permeability of [^3H]-mannitol at >0.1 μM and [^3H]-propranolol at >0.1 μM from apical to basolateral sides for 120 min in a total of 6 representative cell monolayers (3 for each compound) within the same batch of cells.
(§4) Radioactive samples are analyzed by liquid scintillation counting. All other non-radiolabeled samples are kept frozen at −20° C. until analysis by liquid chromatography/tandem mass spectrometry (LC-MS/MS).
(§5) Transport values of the compounds tested are determined using the following equation (Artursson et al., Biochem. Biophys. Res. Comm. 175: 880-885, 1991):
(§6) Papp values are presented as means ± standard deviations of the transport experiments performed (n=3). The statistical significance in differences between any two given data sets is examined by t-test. The probability level for assignment of significance of difference is p<0.025. All statistical analyses were performed using Microsoft EXCEL 5.0c.

Data set [1] in a line: In situ bile-duct cannulated rat experiment (biliary clearance). To be noted: for effect on 14C concentration in plasma: i.v. bolus of inhibitor (PSC833 10 mg/kg, probenecid 50 mg/kg) during constant infusion of [14C]-SPP100 hemifumarate.
Protocol: The effect in situ of co-administration of an efflux protein inhibitor, e.g., a MDR1 inhibitor, on the biliary excretion of a renin inhibitor may be investigated by comparing the amount of compound excreted into bile, in the presence and the absence of an efflux protein inhibitor.
The animals that may be used are, e.g., male albino HAN:WIST rats, 4 to 5 animals in each treatment group.
For all treatment groups blood samples are collected at 0.5, 1, 1.33, 1.67, 2, 2.33, 2.67, 3 h after treatment and blood is immediately processed to plasma. Bile is collected for the time frame of 1 to 3 h in intervals of 20 min.
• for total radioactivity in all samples: LSC; LOQ 3.4 μg/L for plasma and bile; and • for detection of metabolite pattern in selected pools of samples: HPLC with radioactivity detection.
The next data set deals with Caco-2 cell monolayers. Put plainly: in vitro. The following applies: human, Caco-2, 120 min.
From the text: as §1, §2, §3, §4, §5, §6

Data set [2] can be described thus: In vivo bioavailability experiment, single oral administration. Also noted: species or system rat. The following applies: for Cmax / Tmax: male, HAN:WIST, rat, plasma, po.
From the text: Similarly, the effect in vivo of co-administration of an efflux protein inhibitor, e.g., a MDR1 inhibitor, on the bioavailability of a renin inhibitor may be investigated by comparing the pharmacokinetic parameters, Cmax and AUCs, in the presence and the absence of an efflux protein inhibitor.
The animals that may be used are, e.g., male albino HAN:WIST rats, 5 animals in each treatment group.
Plasma is used for biochemical analysis.
Data set [3] has as its system T1, COCCCOc1cc(C[C@@H](C[C@H](N)[C@@H](O)C[C@H](C(=O)NCC(C)(C)C(N)=O)C(C)C)C(C)C)ccc1OC.
T1 construct: host or cells: Sf9 (Spodoptera frugiperda) membrane vesicles
The data set is described as follows: ATPase assay in membrane vesicles expressing high levels of MDR1. The data set is classed as biochemical, human. The following applies: other: membrane vesicles expressing high levels of MDR1; pH 7.4; 37.0 °C.
From the text: The efflux protein(s) involved in the drug efflux of a drug substance may be identified, and the corresponding kinetic parameters may be determined, i.e., Michaelis-Menten Constant and Maximal Drug Transport (Km and Jmax) using methods known in the art, e.g., by an ATPase assay using Sf9 (Spodoptera fruigiperda) membrane vesicles expressing high levels of the selected ABC transporter. In this assay the ABC transporters remove substrates out of cells by using ATP hydrolysis as an energy source. ATP hydrolysis yields inorganic phosphate (Pi), which can be detected by a simple colorimetric reaction. The amount of Pi liberated by the transporter is proportional to the activity of the transporter. Membrane preparations containing ABC transporters show a baseline ATPase activity that varies for different transporters. […]
Efflux mediated by the human MDR1, the human MRP1 or the human MRP2 is measured by incubating the purified membrane vesicles in the absence and the presence of a stimulating agent (Verapamil [40 μM] for MDR1, NEM-GS [10 mM] for MRP1 and Probenecid [1 mM] for MRP2) with different concentrations of a drug substance [0.046, 0.137, 0.41, 1.23, 3.7, 11.1, 33.3 and 100 μM] in transport buffer at pH 7.4 at 37° C. […]
After incubating the OD is measured at 730 nm. Using a previously determined phosphate standard curve the Pi liberated [nmol/well] can be calculated. […]

Where [4] appears, read: 6 mg base/kg, rat plasma, oral SPP100 hemifumarate 6 mg base/kg + vehicle.
The mark [5] stands for this setting: 6 mg/kg, oral SPP100 6 mg base/kg + PSC833 5 mg/kg.
Setting [6] is: 6 mg/kg, oral SPP100 6 mg base/kg + PSC833 12.5 mg/kg.
Where [7] appears, read: 6 mg/kg, oral SPP100 6 mg base/kg + PSC833 25 mg/kg.
Where [8] appears, read: 6 mg/kg, oral SPP100 6 mg base/kg + PSC833 50 mg/kg.
Where [9] appears, read: probenecid 50 mg/kg i.v. during constant infusion of [14C]-SPP100 hemifumarate.

On to `OC[C@@H](O)[C@@H](O)[C@H](O)[C@H](O)CO` [Mannitol, reference compound], for which, in “in vitro”, the Papp A→B – broadly, how fast a substance crosses the layer from the apical side – at 120 min was below 0.5 ×10⁻⁶ cm/s.

For `C/C=C/C[C@@H](C)C(=O)[C@H]1C(=O)N[C@@H](C(C)C)C(=O)N(C)CC(=O)N(C)[C@@H](CC(C)C)C(=O)N[C@@H](C(C)C)C(=O)N(C)[C@@H](CC(C)C)C(=O)N[C@@H](C)C(=O)N[C@H](C)C(=O)N(C)[C@@H](CC(C)C)C(=O)N(C)[C@@H](CC(C)C)C(=O)N(C)[C@@H](C(C)C)C(=O)N1C` [PSC833], the “effect on 14C concentration in bile” value in data set [1] (PSC833 10 mg/kg i.v. during constant infusion of [14C]-SPP100 hemifumarate) is reported as “significant decrease”. Also, the “effect on 14C concentration in plasma” value in data set [1] is “trend towards a time dependent increase”. Moreover, the “biliary clearance of [14C]-labeled compounds, % of the value obtained before administration” value in data set [1] (i.v. bolus of inhibitor during constant i.v. infusion of [14C]-SPP100 hemifumarate, PSC833 10 mg/kg) is “approximately 7%”.

`CC(C)NCC(O)COc1cccc2ccccc12` (centres unmarked) [Propranolol, reference compound] registered a Papp A→B at 120 min in “in vitro” below 15 ×10⁻⁶ cm/s.

In the case of `COCCCOc1cc(C[C@@H](C[C@H](N)[C@@H](O)C[C@H](C(=O)NCC(C)(C)C(N)=O)C(C)C)C(C)C)ccc1OC` [SPP100, (2S,4S,5S,7S)-5-amino-4-hydroxy-2-isopropyl-7-[4-methoxy-3-(3-methoxy-propoxy)-benzyl]-8-methyl-nonanoic acid (2-carbamoyl-2-methyl-propyl)-amide hemifumarate], the apical-to-basolateral permeability (Papp A→B) at 120 min, 1 μM in “in vitro” was around 0.0333 ×10⁻⁶ cm/s. This molecule showed a Papp A→B at 120 min, 10 µM in “in vitro” of around 1.17 ×10⁻⁶ cm/s. Besides, the Papp B→A (usually the apparent permeability from the basolateral to the apical side of a cell layer) at 120 min, 1 µM in “in vitro” is around 1.67 ×10⁻⁶ cm/s. In the data set on Caco-2 cell monolayers, this molecule displayed an intrinsic permeability below 80%. Also, the Cmax (usually the maximum level reached in the sampled fluid or tissue) in data set [2] (setting [4]) is around 24.8 ng/mL; in data set [2] (setting [5]) it was 35.7 ± 18 ng/mL; in data set [2] (setting [6]) it was 115 ± 93 ng/mL; in data set [2] (setting [7]), 81.4 ± 19 ng/mL; in data set [2] (setting [8]) it was 26.7 ± 18 ng/mL. Besides, the Tmax (in general, the time from dosing to the highest level) in data set [2] (setting [4]) is 0.44 ± 0.1 h; in data set [2] (setting [5]), 4.8 ± 1.8 h; in data set [2] (setting [6]), 4.95 ± 4.2 h; in data set [2] (setting [7]), 15.2 ± 18 h; in data set [2] (setting [8]), 3.06 ± 1.9 h. Further, the “dose-normalized AUC(0-tlast), times higher than in the vehicle group” value is listed as “about 23 times” in data set [2] (oral SPP100 6 mg base/kg + PSC833 5 mg/kg), around 69 times in data set [2] (oral SPP100 6 mg base/kg + PSC833 12.5 mg/kg), around 76 times in data set [2] (oral SPP100 6 mg base/kg + PSC833 25 mg/kg) and around 17 times in data set [2] (oral SPP100 6 mg base/kg + PSC833 50 mg/kg). Moreover, the “increase of dose-normalized AUC(0-tlast) compared to control group solely dosed with SPP100” value in data set [2] (orally dosed rats, in the presence of PSC833) is listed as “about 70 fold”. In data set [2] (rat plasma, oral SPP100 hemifumarate 6 mg base/kg + vehicle), the “dose-normalized AUC(0-tlast)” value is 2.38±3.4 (ng*h/mL)/(mg/kg).

`CCCN(CCC)S(=O)(=O)c1ccc(C(=O)O)cc1` [probenecid]: in data set [1], the “effect on 14C concentration in plasma” value is “no effect”. Also, in data set [1] (setting [9]), the “biliary clearance before and after administration” value is “similar”; the “decrease of the [14C] concentration in bile vs value prior to administration” value is recorded as “about 40%”.

As to human MDR1 (Homo sapiens), the Km (usually the substrate concentration at which the rate is half of its maximum) in data set [3] amounted to 3 µM.
